{"source": "patent US20090317483A1", "about": "“Bicomponent Bioadhesive for Biomedical Use” (INSTITUTO OFTALMOLOGICO DE ALICANTE, S.L., priority 2004, published 2009)", "origin": "cited, not measured here", "conditions": "in vivo"}
{"smiles": "C=C(C#N)C(=O)OCCCC", "note": "[butyl cyanoacrylate]", "values": [{"measurement": "closure of corneal perforations", "value": "effective"}]}
